In the NIST ThermoML archive (doi:10.1016/j.jct.2018.04.019):
“And” between values parts separate entries of the source, which are not always exact repeats. Equal values may be shown once.

Details: Liquid; for speed of sound: Frequency=5 MHz, Pulse-echo method; for mass density: Vibrating tube method

CCCCCCCCC [nonane]
Details | mass density | speed of sound
373.14 K, 360090 kPa | – | 2160.1 m/s
373.14 K, 389860 kPa | – | 2212.9 m/s
373.15 K, 1010 kPa | 654.52 kg/m3 | –
373.15 K, 5050 kPa | 659.99 kg/m3 | –
373.15 K, 10030 kPa | 666.13 kg/m3 | –
373.15 K, 15070 kPa | 671.78 kg/m3 | –
373.15 K, 20030 kPa | 677.04 kg/m3 | –
373.15 K, 25060 kPa | 681.94 kg/m3 | –
373.15 K, 30040 kPa | 686.51 kg/m3 | –
373.15 K, 35060 kPa | 690.83 kg/m3 | –
373.15 K, 40020 kPa | 694.95 kg/m3 | –
373.15 K, 45070 kPa | 698.87 kg/m3 | –
373.15 K, 50070 kPa | 702.65 kg/m3 | –
373.15 K, 55060 kPa | 706.23 kg/m3 | –
373.15 K, 60040 kPa | 709.66 kg/m3 | –
373.15 K, 65030 kPa | 712.95 kg/m3 | –
398.14 K, 1100 kPa | – | 835.44 m/s and 835.46 m/s
398.14 K, 30140 kPa | – | 1079.8 m/s
398.14 K, 60240 kPa | – | 1254.1 m/s
398.14 K, 90220 kPa | – | 1391.9 m/s
398.14 K, 120200 kPa | – | 1508.5 m/s
398.14 K, 150150 kPa | – | 1610.2 m/s
398.14 K, 180170 kPa | – | 1701.7 m/s
398.14 K, 210020 kPa | – | 1784.3 m/s
398.14 K, 240150 kPa | – | 1861.3 m/s
398.14 K, 270210 kPa | – | 1933.1 m/s
398.14 K, 299860 kPa | – | 1999.6 m/s
398.14 K, 330010 kPa | – | 2063.7 m/s
398.14 K, 360010 kPa | – | 2124 m/s
398.14 K, 389950 kPa | – | 2182.2 m/s
398.15 K, 1020 kPa | 633.06 kg/m3 | –
398.15 K, 5020 kPa | 639.53 kg/m3 | –
398.15 K, 5030 kPa | 639.58 kg/m3 | –
398.15 K, 10050 kPa | 646.89 kg/m3 | –
398.15 K, 15070 kPa | 653.53 kg/m3 | –
398.15 K, 20020 kPa | 659.49 kg/m3 | –
398.15 K, 25030 kPa | 665.05 kg/m3 | –
398.15 K, 30050 kPa | 670.22 kg/m3 | –
398.15 K, 35050 kPa | 675.1 kg/m3 | –
398.15 K, 40020 kPa | 679.63 kg/m3 | –
398.15 K, 45070 kPa | 683.97 kg/m3 | –
398.15 K, 50020 kPa | 688.07 kg/m3 | –
398.15 K, 55040 kPa | 692.01 kg/m3 | –
398.15 K, 60030 kPa | 695.72 kg/m3 | –
398.15 K, 65040 kPa | 699.37 kg/m3 | –
423.14 K, 1110 kPa | – | 747.67 m/s
423.14 K, 1120 kPa | – | 747.72 m/s
423.14 K, 29690 kPa | – | 1013.6 m/s
423.14 K, 60210 kPa | – | 1199.1 m/s
423.14 K, 90050 kPa | – | 1341 m/s
423.14 K, 120570 kPa | – | 1462.7 m/s
423.14 K, 150110 kPa | – | 1565.4 m/s
423.14 K, 180160 kPa | – | 1658.8 m/s
423.14 K, 210180 kPa | – | 1744 m/s
423.14 K, 239990 kPa | – | 1822.3 m/s
423.14 K, 270120 kPa | – | 1895.7 m/s
423.14 K, 299980 kPa | – | 1964.4 m/s
423.14 K, 330040 kPa | – | 2029.4 m/s
423.14 K, 360020 kPa | – | 2089.7 m/s
423.14 K, 389720 kPa | – | 2146.1 m/s
423.15 K, 1020 kPa | 610.45 kg/m3 | –
423.15 K, 5030 kPa | 618.47 kg/m3 and 618.42 kg/m3 | –
423.15 K, 10030 kPa | 627.15 kg/m3 | –
423.15 K, 15030 kPa | 634.86 kg/m3 | –
423.15 K, 20040 kPa | 641.8 kg/m3 | –
423.15 K, 25040 kPa | 648.1 kg/m3 | –
423.15 K, 30020 kPa | 653.92 kg/m3 | –
423.15 K, 35050 kPa | 659.35 kg/m3 | –
423.15 K, 40020 kPa | 664.4 kg/m3 | –
423.15 K, 45020 kPa | 669.15 kg/m3 | –
423.15 K, 50040 kPa | 673.7 kg/m3 | –
423.15 K, 55020 kPa | 677.97 kg/m3 | –
423.15 K, 60030 kPa | 682.03 kg/m3 | –
423.15 K, 65040 kPa | 685.95 kg/m3 | –
448.15 K, 1000 kPa | 586.37 kg/m3 | –
448.15 K, 1040 kPa | – | 660.9 m/s
448.15 K, 5020 kPa | 596.41 kg/m3 and 596.46 kg/m3 | –
448.15 K, 10040 kPa | 607.05 kg/m3 | –
448.15 K, 15010 kPa | 616.06 kg/m3 | –
448.15 K, 20010 kPa | 624 kg/m3 | –
448.15 K, 25040 kPa | 631.27 kg/m3 | –
448.15 K, 30030 kPa | 637.78 kg/m3 | –
448.15 K, 30440 kPa | – | 960.29 m/s
448.15 K, 35030 kPa | 643.8 kg/m3 | –
448.15 K, 40010 kPa | 649.38 kg/m3 | –
448.15 K, 45050 kPa | 654.67 kg/m3 | –
448.15 K, 50020 kPa | 659.58 kg/m3 | –
448.15 K, 55040 kPa | 664.24 kg/m3 | –
448.15 K, 60030 kPa | 668.62 kg/m3 | –
448.15 K, 60490 kPa | – | 1150.5 m/s
448.15 K, 65020 kPa | 672.85 kg/m3 | –
448.15 K, 90220 kPa | – | 1296 m/s
448.15 K, 120320 kPa | – | 1418.8 m/s
448.15 K, 150280 kPa | – | 1525 m/s
448.15 K, 180150 kPa | – | 1619.4 m/s
448.15 K, 209900 kPa | – | 1704.9 m/s
448.15 K, 239920 kPa | – | 1784.3 m/s
448.15 K, 270080 kPa | – | 1858.4 m/s
448.15 K, 299830 kPa | – | 1929.8 m/s
448.15 K, 330050 kPa | – | 1995.9 m/s
448.15 K, 359980 kPa | – | 2059.2 m/s
448.15 K, 390310 kPa | – | 2115.1 m/s
473.15 K, 1010 kPa | – | 574.55 m/s
473.15 K, 5010 kPa | 573.14 kg/m3 | –
473.15 K, 10040 kPa | 586.15 kg/m3 | –
473.15 K, 15040 kPa | 596.86 kg/m3 | –
473.15 K, 20020 kPa | 606.05 kg/m3 | –
473.15 K, 25050 kPa | 614.28 kg/m3 | –
473.15 K, 30020 kPa | 621.6 kg/m3 | –
473.15 K, 30430 kPa | – | 906.04 m/s
473.15 K, 35030 kPa | 628.3 kg/m3 | –
473.15 K, 40050 kPa | 634.51 kg/m3 | –
473.15 K, 45050 kPa | 640.25 kg/m3 | –
473.15 K, 50040 kPa | 645.6 kg/m3 | –
473.15 K, 55020 kPa | 650.62 kg/m3 | –
473.15 K, 60010 kPa | 655.39 kg/m3 | –
473.15 K, 60390 kPa | – | 1104.6 m/s
473.15 K, 65010 kPa | 659.92 kg/m3 | –
473.15 K, 90200 kPa | – | 1255.4 m/s
473.15 K, 120100 kPa | – | 1381 m/s
473.15 K, 150230 kPa | – | 1490.6 m/s
473.15 K, 180260 kPa | – | 1587.6 m/s
473.15 K, 210230 kPa | – | 1675.8 m/s
473.15 K, 240070 kPa | – | 1755.4 m/s
473.15 K, 270130 kPa | – | 1830.8 m/s
473.15 K, 300080 kPa | – | 1901.9 m/s
473.15 K, 330030 kPa | – | 1964.8 m/s
473.15 K, 360070 kPa | – | 2026.3 m/s
473.15 K, 390060 kPa | – | 2084 m/s
